Structures are written as SMILES. Values after ≈ are worked out from the molar mass of the structure shown. Where only a bound is given, the exact number is not on record here.

The conditions of series [1]: pH 7.4.
The next series has as its system E. coli NIHJ. Description: Antibacterial activity (MIC), E. coli NIHJ. Type of series: cell-based. Particulars: Escherichia coli. Here is the method:
(§1) The present invention will now be illustrated by way of Formulation Examples, Reference Examples, and Examples, but the present invention should not be construed as being limited thereto. All the percents are by weight unless otherwise indicated. The antibacterial activity assays were performed by the method specified by Japan Society of Chemotherapy (Chemotherapy 29(1), 76 (1981), and the results are summarized in Table 1 in terms of minimum inhibitory concentration (MIC).

For a further series, the system named is S. flexneli, 2A, 5503. Description: Antibacterial activity (MIC), S. flexneli, 2A, 5503. Type of series: cell-based. The protocol:
as §1

Another series relates to Pr. vulgaris, 08601. Description: Antibacterial activity (MIC), Pr. vulgaris, 08601. Type of series: cell-based. Particulars: Proteus vulgaris. The protocol:
as §1

For another series, the system named is Pr. mirabiris, IFO-3849. Put plainly: Antibacterial activity (MIC), Pr. mirabiris, IFO-3849. Type of series: cell-based. The protocol: as §1
Another series deals with Ser. marcescens, 10100. Put plainly: Antibacterial activity (MIC), Ser. marcescens, 10100. Type of series: cell-based. To be noted: Serratia marcescens. The protocol:
as §1

Another series relates to Ps. aeruginosa, 32104. Description: Antibacterial activity (MIC), Ps. aeruginosa, 32104. To be noted: Pseudomonas aeruginosa. Type of series: cell-based. The protocol: as §1
The test system of a further series is Ps. aeruginosa, 32121. Put plainly: Antibacterial activity (MIC), Ps. aeruginosa, 32121. Type of series: cell-based. Particulars: Pseudomonas aeruginosa. Here is the method:
as §1

The test system of another series is S. aureus, 209P. Description: Antibacterial activity (MIC), S. aureus, 209P. Type of series: cell-based. Particulars: Staphylococcus aureus. The protocol:
as §1

A further series concerns S. aureus, Smith. Description: Antibacterial activity (MIC), S. aureus, Smith. Type of series: cell-based. To be noted: Staphylococcus aureus. The protocol:
as §1

The subject of another series is S. epidermidis, 56500. Put plainly: Antibacterial activity (MIC), S. epidermidis, 56500. Particulars: Staphylococcus epidermidis. Type of series: cell-based. The protocol:
as §1

The next series concerns Str. pyogenes, G-36. Description: Antibacterial activity (MIC), Str. pyogenes, G-36. To be noted: Streptococcus pyogenes, G36. Type of series: cell-based. Here is the method: as §1
Series [2] relates to Str. faecalis, ATCC 19433. Description: Antibacterial activity (MIC), Str. faecalis, ATCC 19433. Particulars: Enterococcus faecalis, ATCC19433. Type of series: cell-based. Here is the method:
as §1

With `O=C(O)c1cn([C@@H]2C[C@@H]2F)c2c(Cl)c(N3C[C@H]4NCCO[C@@H]4C3)c(F)cc2c1=O` (mixture of isomers) [Ex. 7, (+)-8-Chloro-6-fluoro-1-[(1R,2S)-2-fluorocyclopropyl]-7-[trans-2-oxa-5,8-diazabicyclo[4.3.0]-nonan-8-yl]-1,4-dihydro-4-oxoquinoline-3-carboxylic acid], the “Partition Coefficient p'” value in series [1] is listed as 26.9.

Regarding `O=C(O)c1cn([C@@H]2C[C@@H]2F)c2c(Cl)c(N3C[C@H]4NCCO[C@@H]4C3)c(F)cc2c1=O` (mixture of isomers) [Ex. 8, (-)-8-Chloro-6-fluoro-1-[(1R,2S)-2-fluorocyclopropyl]-7-[trans-2-oxa-5,8-diazabicyclo[4.3.0]nonan-8-yl]-1,4-dihydro-4-oxoquinoline-3-carboxylic acid], the “Partition Coefficient p'” value in series [1] came to 24.8.

For `Nc1c(F)c(N2C[C@H]3NCCO[C@@H]3C2)c(F)c2c1c(=O)c(C(=O)O)cn2[C@@H]1C[C@@H]1F` (mixture of isomers) [Ex. 9, 5-Amino-6,8-difluoro-1-[(1R,2S)-2-fluorocyclopropyl]-7-(trans-2-oxa-5,8-diazabicyclo[4.3.0]nonan-8-yl) -1,4-dihydro-4-oxoquinoline-3-carboxylic acid], the minimum inhibitory concentration (MIC) with E. coli NIHJ worked out at 0.006 µg/mL; in the series on S. flexneli, 2A, 5503 it was 0.013 µg/mL; in the series with Pr. vulgaris, 08601, 0.025 µg/mL; in the series with Pr. mirabiris, IFO-3849 it was 0.05 µg/mL; in the series on Ser. marcescens, 10100 it was 0.1 µg/mL; in the series on Ps. aeruginosa, 32104 it was 0.2 µg/mL. In addition, the MIC against Ps. aeruginosa, 32121 was 0.05 µg/mL; against S. aureus, 209P, 0.013 µg/mL; in the series with S. aureus, Smith it was 0.006 µg/mL; in the series on S. epidermidis, 56500 it was 0.025 µg/mL; in the series on Str. pyogenes, G-36 it was 0.2 µg/mL; in series [2], 0.1 µg/mL.

For the compound `O=C(O)c1cn(C2CC2)c2c(Cl)c(N3C[C@H]4NCCO[C@@H]4C3)c(F)cc2c1=O` (relative stereo) [Compound A, 8-chloro-1-cyclopropyl-6-fluoro-1,4-dihydro-7-(trans-2-oxa-5,8-diazabicyclo[4.3.0]nonan8-yl)-4-oxo-3-quinoline-3-carboxylic acid, reference compound], the “Partition Coefficient p'” value in series [1] worked out at 112.

On to `O=C(O)c1cn(C2CC2)c2c(Cl)c(N3C[C@@H]4CCCN[C@@H]4C3)c(F)cc2c1=O` [Bay y 3118, reference compound], for which, in series [1], the “Partition Coefficient p'” value came out at 35.8.

Turning to `O=C(O)c1cn([C@@H]2C[C@@H]2F)c2c(Cl)c(N3C[C@@H]4CCCN[C@@H]4C3)c(F)cc2c1=O` [Ex. 2, 8-Chloro-7-([S,S]-2,8-diazabicyclo[4.3.0]nonan-8-yl)-8-chloro-6-fluoro-1-[(1R,2S)-2-fluorocyclopropyl]-1,4-dihydro-4-oxoquinoline-3-carboxylic Acid], the minimum inhibitory concentration (MIC) against E. coli NIHJ is at most 0.003 µg/mL; with S. flexneli, 2A, 5503, 0.006 µg/mL (≈ 0.0142 µM); in the series with Pr. vulgaris, 08601, 0.013 µg/mL (≈ 0.0307 µM); with Pr. mirabiris, IFO-3849, 0.025 µg/mL (≈ 0.059 µM); with Ser. marcescens, 10100 it was 0.025 µg/mL (≈ 0.059 µM); in the series on Ps. aeruginosa, 32104 it was 0.05 µg/mL (≈ 0.118 µM). The MIC against Ps. aeruginosa, 32121 was 0.05 µg/mL (≈ 0.118 µM); against S. aureus, 209P, 0.013 µg/mL (≈ 0.0307 µM); with S. aureus, Smith it was 0.006 µg/mL (≈ 0.0142 µM); in the series on S. epidermidis, 56500, 0.05 µg/mL (≈ 0.118 µM); against Str. pyogenes, G-36, 0.05 µg/mL (≈ 0.118 µM); in series [2], 0.1 µg/mL (≈ 0.236 µM). Further, in series [1], the “Partition Coefficient p'” value stood at 6.69.

For the compound `Nc1c(F)c(N2C[C@@H]3CCCN[C@@H]3C2)c(F)c2c1c(=O)c(C(=O)O)cn2[C@@H]1C[C@@H]1F` [Ex. 3, 5-Amino-7-[(S,S)-2,8-diazabicyclo[4.3.0]nonan-8-yl]-6,8-difluoro-1-[(1R,2S)-2-fluorocyclopropyl]-1,4-dihydro-4-oxoquinoline-3-carboxylic acid], the MIC against E. coli NIHJ amounted to 0.006 µg/mL (≈ 0.0142 µM); in the series on S. flexneli, 2A, 5503, 0.013 µg/mL (≈ 0.0308 µM); in the series with Pr. vulgaris, 08601 it was 0.025 µg/mL (≈ 0.0592 µM); in the series on Pr. mirabiris, IFO-3849, 0.05 µg/mL (≈ 0.118 µM); in the series on Ser. marcescens, 10100, 0.05 µg/mL (≈ 0.118 µM); against Ps. aeruginosa, 32104, 0.05 µg/mL (≈ 0.118 µM). Moreover, the MIC against Ps. aeruginosa, 32121 is 0.05 µg/mL (≈ 0.118 µM); against S. aureus, 209P, 0.025 µg/mL (≈ 0.0592 µM); with S. aureus, Smith, 0.006 µg/mL (≈ 0.0142 µM); against S. epidermidis, 56500, 0.025 µg/mL (≈ 0.0592 µM); with Str. pyogenes, G-36 it was 0.1 µg/mL (≈ 0.237 µM); in series [2], 0.1 µg/mL (≈ 0.237 µM).

For the compound `Cc1c(N2C[C@@H]3CCCN[C@@H]3C2)c(F)cc2c(=O)c(C(=O)O)cn([C@@H]3C[C@@H]3F)c12` [Ex. 4, 7-[(S,S)-2,8-diazabicyclo[4.3.0]nonan-8-yl]-6-fluoro-1-[(1R,2S)-2-fluorocyclopropyl]-8-methyl-1,4-dihydro-4-oxoquinoline-3-carboxylic acid], the minimum inhibitory concentration (MIC) with E. coli NIHJ worked out at 0.013 µg/mL (≈ 0.0322 µM); against S. flexneli, 2A, 5503 it was 0.025 µg/mL (≈ 0.062 µM); in the series with Pr. vulgaris, 08601 it was 0.025 µg/mL (≈ 0.062 µM); against Pr. mirabiris, IFO-3849, 0.05 µg/mL (≈ 0.124 µM); in the series on Ser. marcescens, 10100, 0.05 µg/mL (≈ 0.124 µM); against Ps. aeruginosa, 32104, 0.1 µg/mL (≈ 0.248 µM). For the same compound, the MIC with Ps. aeruginosa, 32121 amounted to 0.05 µg/mL (≈ 0.124 µM); in the series with S. aureus, 209P it was 0.025 µg/mL (≈ 0.062 µM); against S. aureus, Smith, 0.013 µg/mL (≈ 0.0322 µM); with S. epidermidis, 56500, 0.05 µg/mL (≈ 0.124 µM); against Str. pyogenes, G-36, 0.1 µg/mL (≈ 0.248 µM); in series [2], 0.2 µg/mL (≈ 0.496 µM). In addition, the “Partition Coefficient p'” value in series [1] stood at 3.73.

`O=C(O)c1cn([C@@H]2C[C@@H]2F)c2c(F)c(N3C[C@@H]4CCCN[C@@H]4C3)c(F)cc2c1=O` [Ex. 5, 7-[(S,S)-2,8-diazabicyclo[4.3.0]nonan-8-yl]-6,8-difluoro-1-[(1R,2S)-2-fluorocyclopropyl]-1,4-dihydro-4-oxoquinoline-3-carboxylic acid]: the MIC in the series with E. coli NIHJ came out at 0.013 µg/mL (≈ 0.0319 µM); in the series on S. flexneli, 2A, 5503, 0.013 µg/mL (≈ 0.0319 µM); with Pr. vulgaris, 08601, 0.013 µg/mL (≈ 0.0319 µM); against Pr. mirabiris, IFO-3849 it was 0.05 µg/mL (≈ 0.123 µM); against Ser. marcescens, 10100, 0.05 µg/mL (≈ 0.123 µM); in the series on Ps. aeruginosa, 32104, 0.1 µg/mL (≈ 0.245 µM). The MIC against Ps. aeruginosa, 32121 was found to be 0.05 µg/mL (≈ 0.123 µM); with S. aureus, 209P, 0.025 µg/mL (≈ 0.0614 µM); against S. aureus, Smith, 0.013 µg/mL (≈ 0.0319 µM); in the series on S. epidermidis, 56500, 0.1 µg/mL (≈ 0.245 µM); in the series with Str. pyogenes, G-36 it was 0.1 µg/mL (≈ 0.245 µM); in [2] it was 0.2 µg/mL (≈ 0.491 µM). The “Partition Coefficient p'” value in series [1] came to 5.84.

With `O=C(O)c1cn([C@@H]2C[C@@H]2F)c2c(Cl)c(N3CC4=C(CNC4)C3)c(F)cc2c1=O` [Ex. 6, 8-Chloro-7-[3,7-diazabicyclo[3.3.0]oct-1(5)-ene-3-yl]-6-fluoro-1-[(1R,2S)-2-fluorocyclopropyl]-1,4-dihydro-4-oxoquinoline-3-carboxylic acid], the MIC is 0.025 µg/mL (≈ 0.0613 µM) in the series with E. coli NIHJ; 0.013 µg/mL (≈ 0.0319 µM) against S. flexneli, 2A, 5503; 0.013 µg/mL (≈ 0.0319 µM) with Pr. vulgaris, 08601; 0.05 µg/mL (≈ 0.123 µM) in the series with Pr. mirabiris, IFO-3849; 0.2 µg/mL (≈ 0.49 µM) in the series with Ser. marcescens, 10100; 0.2 µg/mL (≈ 0.49 µM) against Ps. aeruginosa, 32104. Moreover, the MIC worked out at 0.1 µg/mL (≈ 0.245 µM) in the series on Ps. aeruginosa, 32121; 0.025 µg/mL (≈ 0.0613 µM) in the series on S. aureus, 209P; 0.013 µg/mL (≈ 0.0319 µM) with S. aureus, Smith; 0.1 µg/mL (≈ 0.245 µM) against S. epidermidis, 56500; 0.1 µg/mL (≈ 0.245 µM) against Str. pyogenes, G-36; 0.39 µg/mL (≈ 0.956 µM) in series [2].

Usually MIC stands for the lowest concentration that inhibits growth of the organism. The low end stands for greater potency, the high end for weaker potency.

(Values after patent US5654318A, “Bicyclic amine derivatives” (Daiichi Pharmaceutical Co., Ltd., priority 1992, dated 1997).)
